This is an account of results in article PMC5749554 (Drug Design, Development and Therapy, 2017).

Usually IC50 stands for the concentration at which inhibition is half-maximal. High values mean weaker potency, low ones greater potency. Usually Ki stands for the equilibrium dissociation constant of an inhibitor or competing ligand from its target. Read a high Ki as a looser hold on the target.

Format in all cases: biochemical
Details in all cases: liver microsomes
On the technique in general: Microsomes from liver hold many membrane-bound enzymes, among them those of drug oxidation.

Data set [1] concerns the target CYP3A4 (HLM) (Homo sapiens, UniProt P08684). Nature of the data set: cocktail probe-substrate assay, HPLC.
For data set [2], the target named is CYP2E1 (HLM) (Homo sapiens, UniProt P05181). Nature of the data set: cocktail probe-substrate assay, HPLC.
Data set [3] concerns the target T1, CYP2C9 (HLM) (Homo sapiens, UniProt P11712). Nature of the data set: HPLC-UV of 4-hydroxytolbutamide.
Data set [4] has as its target T2, CYP2D6 (HLM) (Homo sapiens, UniProt P10635). Nature of the data set: cocktail probe-substrate assay, HPLC.
The target of data set [5] is T2, CYP2D6 (HLM). Nature of the data set: HPLC-MS/MS of alpha-hydroxymetoprolol.
The target of data set [6] is T3, CYP1A2 (HLM) (Homo sapiens, UniProt P05177).
T3 sequence (P05177 2-516): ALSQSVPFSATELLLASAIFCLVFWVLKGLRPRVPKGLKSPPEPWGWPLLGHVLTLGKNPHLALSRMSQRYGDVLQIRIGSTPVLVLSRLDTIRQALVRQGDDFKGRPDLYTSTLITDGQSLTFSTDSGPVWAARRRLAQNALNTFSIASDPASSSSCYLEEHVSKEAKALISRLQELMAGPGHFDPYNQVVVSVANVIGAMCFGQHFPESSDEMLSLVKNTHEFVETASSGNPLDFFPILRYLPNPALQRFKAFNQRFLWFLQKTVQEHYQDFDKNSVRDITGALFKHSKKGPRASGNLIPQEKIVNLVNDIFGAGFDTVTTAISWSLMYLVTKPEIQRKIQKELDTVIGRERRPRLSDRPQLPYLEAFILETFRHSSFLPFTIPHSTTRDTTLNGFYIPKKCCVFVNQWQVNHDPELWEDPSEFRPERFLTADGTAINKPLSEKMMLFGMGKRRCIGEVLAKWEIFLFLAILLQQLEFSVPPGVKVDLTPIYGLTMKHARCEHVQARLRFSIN
Nature of the data set: cocktail probe-substrate assay, HPLC.

In data set [7] the target is T1, CYP2C9 (HLM). Nature of the data set: cocktail probe-substrate assay, HPLC.

T1 sequence (P11712 whole entry): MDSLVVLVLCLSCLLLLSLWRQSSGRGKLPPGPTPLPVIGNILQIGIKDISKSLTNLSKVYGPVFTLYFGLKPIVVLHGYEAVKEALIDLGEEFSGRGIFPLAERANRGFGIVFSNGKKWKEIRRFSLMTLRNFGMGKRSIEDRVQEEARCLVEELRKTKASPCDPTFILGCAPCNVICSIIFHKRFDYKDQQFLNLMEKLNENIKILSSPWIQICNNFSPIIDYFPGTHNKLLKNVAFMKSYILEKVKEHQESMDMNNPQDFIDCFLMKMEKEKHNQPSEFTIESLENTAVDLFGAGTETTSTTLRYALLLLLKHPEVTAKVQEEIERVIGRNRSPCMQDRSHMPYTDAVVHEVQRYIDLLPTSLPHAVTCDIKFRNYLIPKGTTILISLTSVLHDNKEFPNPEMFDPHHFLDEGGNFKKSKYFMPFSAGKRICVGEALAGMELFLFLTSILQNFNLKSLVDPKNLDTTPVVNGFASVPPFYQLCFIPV
T2 sequence (P10635 whole entry): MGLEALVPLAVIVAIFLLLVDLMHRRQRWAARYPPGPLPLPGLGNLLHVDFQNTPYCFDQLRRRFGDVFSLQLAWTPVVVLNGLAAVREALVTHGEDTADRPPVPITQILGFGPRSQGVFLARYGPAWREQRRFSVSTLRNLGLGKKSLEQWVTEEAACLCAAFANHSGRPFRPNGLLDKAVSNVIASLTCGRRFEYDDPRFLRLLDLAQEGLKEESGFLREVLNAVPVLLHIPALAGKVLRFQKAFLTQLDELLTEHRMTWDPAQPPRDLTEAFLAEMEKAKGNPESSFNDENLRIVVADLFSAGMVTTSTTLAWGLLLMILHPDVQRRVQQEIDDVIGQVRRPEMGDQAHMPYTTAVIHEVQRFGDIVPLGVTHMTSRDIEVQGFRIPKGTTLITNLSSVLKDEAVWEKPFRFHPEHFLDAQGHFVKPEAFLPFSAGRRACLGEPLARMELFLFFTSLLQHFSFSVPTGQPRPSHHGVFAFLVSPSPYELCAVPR
Sequence of CYP2E1 (HLM) (P05181 whole entry): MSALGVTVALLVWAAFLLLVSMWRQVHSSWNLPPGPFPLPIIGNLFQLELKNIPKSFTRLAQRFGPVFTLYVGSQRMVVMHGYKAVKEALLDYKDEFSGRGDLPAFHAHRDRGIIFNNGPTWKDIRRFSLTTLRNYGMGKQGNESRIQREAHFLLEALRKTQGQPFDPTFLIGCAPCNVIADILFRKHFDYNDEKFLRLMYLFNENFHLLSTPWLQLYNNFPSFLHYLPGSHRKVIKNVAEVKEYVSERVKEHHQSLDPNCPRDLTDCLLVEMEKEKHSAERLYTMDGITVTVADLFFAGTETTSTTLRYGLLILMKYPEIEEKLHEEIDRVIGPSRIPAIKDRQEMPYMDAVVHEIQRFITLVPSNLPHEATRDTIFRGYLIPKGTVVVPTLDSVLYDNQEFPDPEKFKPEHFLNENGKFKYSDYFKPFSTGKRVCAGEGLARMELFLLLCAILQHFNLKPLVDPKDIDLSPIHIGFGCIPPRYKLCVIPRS
Sequence of CYP3A4 (HLM) (P08684 2-503): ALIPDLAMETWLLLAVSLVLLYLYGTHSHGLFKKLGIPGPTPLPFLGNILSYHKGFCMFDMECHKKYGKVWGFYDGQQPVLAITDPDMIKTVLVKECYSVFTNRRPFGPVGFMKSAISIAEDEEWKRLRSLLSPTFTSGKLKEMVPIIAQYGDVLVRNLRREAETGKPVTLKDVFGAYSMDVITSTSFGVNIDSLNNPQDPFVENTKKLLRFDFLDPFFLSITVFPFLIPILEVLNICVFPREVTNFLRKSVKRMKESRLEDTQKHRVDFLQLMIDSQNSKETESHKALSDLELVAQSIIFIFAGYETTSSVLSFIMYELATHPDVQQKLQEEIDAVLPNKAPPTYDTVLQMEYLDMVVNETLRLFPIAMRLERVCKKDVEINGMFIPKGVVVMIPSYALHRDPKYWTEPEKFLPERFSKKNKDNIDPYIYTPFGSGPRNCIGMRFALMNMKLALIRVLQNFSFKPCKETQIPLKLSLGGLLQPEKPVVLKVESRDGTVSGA

With `COc1cc2c(cc1OC)-c1cc3ccc4c(c3c[n+]1CC2)OCO4` [Epiberberine], the half-inhibitory concentration (IC50) in data set [1] is 81.5 µM; in data set [2], 66.3 µM; in data set [4] it was 11.9 µM; in data set [6], > 100 µM; in data set [7], 8.18 µM. Moreover, the results for the inhibitory constant (Ki) in data set [3] and in data set [5] were 5.64 µM and 25.4 µM, respectively.
